Values of other authors in US10881613B2, “Fumarate polymersomes” (UCL BUSINESS LTD, priority 2016, dated 2021).

Settings: in vivo

half life (metabolized by the liver): 2 h
SMILES: CC(O)CO (stereo not shown) [Propylene glycol]
